For experiment [1], the system named is Wnt activity (Sp5-Luc reporter, SW480 colon carcinoma cells). As to the kind of experiment: Wnt activity screening assay, Sp5-Luc reporter gene in SW480 cells. The note with it: Homo sapiens; for inhibition at 10 µM: given for EC50 >10 μM, read-out: percent inhibition at 10 μM; for EC50: overnight incubation. It is filed as cell-based. The method in brief: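 SW480 colon carcinoma cells stably expressing firefly luciferase under a human Sp5 promoter (eight TCF/LEF sites), plated in 1% FBS medium. 10-point 1:3 dilutions from 10 μM, 0.1% DMSO final, overnight at 37 °C; luminescence normalized to DMSO, four-parameter fit for EC50, % inhibition at 10 μM if EC50 >10 μM.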

Experiment [2] deals with primary human mesenchymal stem cells (hMSCs). Put plainly: Chondrogenesis induction in hMSCs (nodule count, Rhodamine B/Nile Red). It is filed as cell-based. The note with it: 144 h, 6 days; for EC50: concentration required to induce 50% levels of chondrogenesis vs TGF-β3, read-out: Conc (nM) of 50% TGF-β3 activity; for Emax: relative to TGF-β3 (10 ng/mL) positive control, read-out: Max. Activity as % TGF-β3 activity. On the procedure: Representative compounds were screened using primary human mesenchymal stem cells (hMSCs) to determine their ability to induce chondrogenesis (process by which cartilage is developed).
Primary human mesenchymal stem cells (hMSCs) were purchased from Lonza (Walkersville, Md.) and expanded in Mesenchymal Stem Cell Growth Media (Lonza). Cells between passage 3 and 6 were used for the experiments.
Each compound was dissolved in DMSO as a 10 mM stock and used to prepare compound source plates. Serial dilution (1:3, 6-point dose-response curves from 2700 nM to 10 nM) and compound transfer was performed using the ECHO 550 (Labcyte, Sunnyvale, Calif.) into 96-well clear bottom assay plates (Greiner Bio-One) with appropriate DMSO backfill for a final DMSO concentration of 0.03%. hMSCs were plated at 20,000 cells/well in 250 μL/well Incomplete Chondrogenic Induction Medium (Lonza; DMEM, dexamethasone, ascorbate, insulin-transferrin-selenium [ITS supplement], gentamycin-amphotericin [GA-1000], sodium pyruvate, proline and L-glutamine). TGF-β3 (10 ng/mL) was used as a positive control for differentiation while negative control wells were treated with 75 nL DMSO for normalization and calculating EC50 values. Cells were incubated at 37° C. and 5% CO2 for 6 days. To image chondrogenic nodules, the cells were fixed using 4% formaldehyde (Electron Microscopy Sciences), and stained with 2 μg/mL Rhodamine B (Sigma-Aldrich) and 20 μM Nile Red (Sigma-Aldrich) [Johnson K., et. al, A Stem Cell-Based Approach to Cartilage Repair, Science, (2012), 336(6082), 717-721]. The nodules imaged (4 images per well at 4× magnification) by excitation at 531 nm and emission at 625 nm and quantified using the CellInsight CX5 (Thermo Scientific). Number of nodules in each well was normalized to the average of 3 DMSO treated wells on the same plate using Excel (Microsoft Inc.). The normalized averages (fold change over DMSO) of 3 replicate wells for each compound concentration were calculated. Due to solubility limitations of some of the compounds, curve fitting was incomplete leading to inaccurate EC50 determinations.
Using TGF-β3 as a positive control, the concentration of representative compounds required to induce 50% levels of chondrogenesis is reported. In addition, the maximum activity of each compound and the respective dose that each compound reached maximum chondrogenesis activity is reported.

Regarding `CCCCC(=O)Nc1cncc(-c2cnc3[nH]nc(-c4cc5c(-c6ccccc6F)ccnc5[nH]4)c3c2)c1` [Compound 75, N-(5-(3-(4-(2-Fluorophenyl)-1H-pyrrolo[2,3-b]pyridin-2-yl)-1H-pyrazolo [3,4-b]pyridin-5-yl)pyridin-3-yl)pentanamide], in experiment [1], the inhibition at 10 µM is 2.1% and the EC50 is greater than 10 µM. Moreover, in experiment [2], the EC50 is 30 nM and the Emax was 82%.

On to `CCC(=O)Nc1cncc(-c2cnc3[nH]nc(-c4cc5c(N6CCCCC6)ccnc5[nH]4)c3c2)c1` [Compound 169, N-(5-(3-(4-(Piperidin-1-yl)-1H-pyrrolo[2,3-b]pyridin-2-yl)-1H-pyrazolo[3,4-b]pyridin-5-yl)pyridin-3-yl)propionamide], for which the EC50 is 0.861 µM in experiment [1] and 900 nM in experiment [2]. The Emax in experiment [2] came to 183%.

Regarding `c1cncc(-c2cnc3[nH]nc(-c4cc5cccnc5[nH]4)c3c2)c1` [Compound 256, 5-(Pyridin-3-yl)-3-(1H-pyrrolo[2,3-b]pyridin-2-yl)-1H-pyrazolo[3,4-b]pyridine], the EC50 in experiment [1] came to 1.06 µM. Besides, the Emax in experiment [2] is 11%.

As for `O=C(CC1CCNCC1)Nc1cncc(-c2cnc3[nH]nc(-c4cc5c(-c6ccncc6)ccnc5[nH]4)c3c2)c1` [Compound 577], in experiment [1], the inhibition at 10 µM is 12.5% and the EC50 was greater than 10 µM. The Emax in experiment [2] came to 27%.

Take `Fc1ccc(-c2ccnc3[nH]c(-c4n[nH]c5ncc(-c6cncc(CN7CCCC7)c6)cc45)cc23)cc1` [Compound 42, 3-(4-(4-Fluorophenyl)-1H-pyrrolo[2,3-b]pyridin-2-yl)-5-(5-(pyrrolidin-1-ylmethyl)pyridin-3-yl)-1H-pyrazolo[3,4-b]pyridine]: in experiment [1], the inhibition at 10 µM is 26% and the EC50 is greater than 10 µM. Moreover, the Emax in experiment [2] came out at 25%.

On to `CC(C)Nc1cncc(-c2cnc3[nH]nc(-c4cc5c(-c6ccccc6F)ccnc5[nH]4)c3c2)c1` [Compound 68, 5-(3-(4-(2-Fluorophenyl)-1H-pyrrolo[2,3-b]pyridin-2-yl)-1H-pyrazolo[3,4-b]pyridin-5-yl)-N-isopropylpyridin-3-amine], for which, in experiment [1], the inhibition at 10 µM stood at 4.6% and the EC50 was greater than 10 µM. Further, in experiment [2], the EC50 was found to be 10 nM and the Emax was determined as 82%.

As for `Nc1cncc(-c2cnc3[nH]nc(-c4cc5c(-c6ccccc6F)ccnc5[nH]4)c3c2)c1` [Compound 59, 5-(3-(4-(2-Fluorophenyl)-1H-pyrrolo[2,3-b]pyridin-2-yl)-1H-pyrazolo[3,4-b]pyridin-5-yl)pyridin-3-amine], in experiment [1], the inhibition at 10 µM was 48.3% and the EC50 was greater than 10 µM. Further, in experiment [2], the Emax amounted to 28%.

In the case of `CCNCc1cncc(-c2cnc3[nH]nc(-c4cc5c(-c6cccnc6)ccnc5[nH]4)c3c2)c1` [Compound 90, N-((5-(3-(4-(Pyridin-3-yl)-1H-pyrrolo[2,3-b]pyridin-2-yl)-1H-pyrazolo[3,4-b]pyridin-5-yl)pyridin-3-yl)methyl)ethanamine], in experiment [1], the inhibition at 10 µM stood at 8.2% and the EC50 is greater than 10 µM. For the same molecule, in experiment [2], the EC50 is 10 nM and the Emax came to 92%.

In experiment [1], `O=C(Nc1cncc(-c2cnc3[nH]nc(-c4cc5cccnc5[nH]4)c3c2)c1)C1CCCCC1` [Compound 275, N-(5-(3-(1H-Pyrrolo[2,3-b]pyridin-2-yl)-1H-pyrazolo[3,4-b]pyridin-5-yl)pyridin-3-yl)cyclohexanecarboxamide] displayed an EC50 of 1.26 µM. Further, in experiment [2], the Emax worked out at 28%.

In the case of `Cn1cc(-c2cnc3[nH]nc(-c4cc5cccnc5[nH]4)c3c2)cn1` [Compound 652, 5-(1-Methyl-1H-pyrazol-4-yl)-3-(1H-pyrrolo[2,3-b]pyridin-2-yl)-1H-pyrazolo[3,4-b]pyridine], in experiment [1], the inhibition at 10 µM turned out to be 23.4% and the EC50 was greater than 10 µM. Besides, in experiment [2], the EC50 was determined as 300 nM and the Emax was 52%.

Turning to `CC(C)CC(=O)Nc1cncc(-c2cnc3[nH]nc(-c4cc5c(-c6cccnc6)ccnc5[nH]4)c3c2)c1` [Compound 86, 3-Methyl-N-(5-(3-(4-(pyridin-3-yl)-1H-pyrrolo[2,3-b]pyridin-2-yl)-1H-pyrazolo[3,4-b]pyridin-5-yl)pyridin-3-yl)butanamide], in experiment [1], the inhibition at 10 µM worked out at 2.7% and the EC50 was greater than 10 µM. Further, the Emax in experiment [2] was found to be 44%.

`CCCC(=O)Nc1cncc(-c2cnc3[nH]nc(-c4cc5c(-c6ccncc6)ccnc5[nH]4)c3c2)c1` [Compound 129, N-(5-(3-(4-(Pyridin-4-yl)-1H-pyrrolo[2,3-b]pyridin-2-yl)-1H-pyrazolo[3,4-b]pyridin-5-yl)pyridin-3-yl)butyramide]: in experiment [1], the inhibition at 10 µM was 35% and the EC50 is greater than 10 µM. Moreover, in experiment [2], the EC50 stood at 30 nM and the Emax worked out at 50%.

In the case of `CC(C)(C)CC(=O)Nc1cncc(-c2cnc3[nH]nc(-c4cc5c(-c6ccncc6)ccnc5[nH]4)c3c2)c1` [Compound 128, 3,3-Dimethyl-N-(5-(3-(4-(pyridin-4-yl)-1H-pyrrolo[2,3-b]pyridin-2-yl)-1H-pyrazolo[3,4-b]pyridin-5-yl)pyridin-3-yl)butanamide], in experiment [1], the inhibition at 10 µM came out at 0% and the EC50 was greater than 10 µM. Moreover, in experiment [2], the EC50 came to 300 nM and the Emax was 79%.

With `CN(C)c1cncc(-c2cnc3[nH]nc(-c4cc5c(-c6ccccc6F)ccnc5[nH]4)c3c2)c1` [Compound 63, 5-(3-(4-(2-Fluorophenyl)-1H-pyrrolo[2,3-b]pyridin-2-yl)-1H-pyrazolo[3,4-b]pyridin-5-yl)-N,N-dimethylpyridin-3-amine], in experiment [1], the inhibition at 10 µM stood at 4% and the EC50 was greater than 10 µM. The Emax in experiment [2] was found to be 35%.

On to `CN(C)Cc1cncc(-c2cnc3[nH]nc(-c4cc5c(N6CCCCC6)ccnc5[nH]4)c3c2)c1` [Compound 181, N,N-Dimethyl-1-(5-(3-(4-(piperidin-1-yl)-1H-pyrrolo[2,3-b]pyridin-2-yl)-1H-pyrazolo[3,4-b]pyridin-5-yl)pyridin-3-yl)methanamine], for which, in experiment [1], the inhibition at 10 µM is 38.8% and the EC50 was greater than 10 µM. The Emax in experiment [2] is 46%.

Turning to `CN(C)Cc1cncc(-c2cnc3[nH]nc(-c4cc5c(-c6cccc(F)c6)ccnc5[nH]4)c3c2)c1` [Compound 13, 1-(5-(3-(4-(3-Fluorophenyl)-1H-pyrrolo[2,3-b]pyridin-2-yl)-1H-pyrazolo [3,4-b]pyridin-5-yl)pyridin-3-yl)-N,N-dimethylmethanamine], in experiment [1], the inhibition at 10 µM worked out at 22.6% and the EC50 was greater than 10 µM. In addition, in experiment [2], the EC50 was 100 nM and the Emax was 102%.

`c1cncc(-c2ccnc3[nH]c(-c4n[nH]c5ncc(-c6cncc(CN7CCCCC7)c6)cc45)cc23)c1` [Compound 99, 5-(5-(Piperidin-1-ylmethyl)pyridin-3-yl)-3-(4-(pyridin-3-yl)-1H-pyrrolo[2,3-b]pyridin-2-yl)-1H-pyrazolo[3,4-b]pyridine]: in experiment [1], the inhibition at 10 µM is 26% and the EC50 is greater than 10 µM. The Emax in experiment [2] worked out at 44%.

Take `CCCCC(=O)Nc1cncc(-c2cnc3[nH]nc(-c4cc5cccnc5[nH]4)c3c2)c1` [Compound 271, N-(5-(3-(1H-Pyrrolo[2,3-b]pyridin-2-yl)-1H-pyrazolo[3,4-b]pyridin-5-yl)pyridin-3-yl)pentanamide]: in experiment [1], the inhibition at 10 µM amounted to 6.5% and the EC50 was greater than 10 µM. Also, in experiment [2], the EC50 was 900 nM and the Emax came out at 260%.

Take `Nc1cncc(-c2cnc3[nH]nc(-c4cc5c(-c6ccncc6)ccnc5[nH]4)c3c2)c1` [Compound 115, 5-(3-(4-(Pyridin-4-yl)-1H-pyrrolo[2,3-b]pyridin-2-yl)-1H-pyrazolo[3,4-b]pyridin-5-yl)pyridin-3-amine]: in experiment [1], the inhibition at 10 µM worked out at 5.6% and the EC50 was greater than 10 µM. In experiment [2], the Emax was 12%.

The term inhibition denotes the share of the control response that was lost under treatment.

The record behind these values is patent publication US10285983B2, “3-(1H-pyrrolo[2,3-B]pyridin-2-yl)-1H-pyrazolo[3,4-B] pyridines and therapeutic uses thereof” (Samumed, LLC, priority 2015, dated 2019).
